In brackets after ≈: the same amount, converted by molar mass.
Tests used:
[1] = tested on: human rhinovirus (HRV) serotypes; assay: microbe, parasite or virus in culture; assay type: cell-based; details: for MIC50: read-out: Rhinovirus MIC50; for IC (MIC80 of serotype panel): read-out: Rhinovirus MIC80
Polio 2 = assay: microbe, parasite or virus in culture; assay type: cell-based, poliovirus; details: Enterovirus C, HeLa, read-out: Polio 2 MIC

Structure (SMILES)	MIC50 [1] [µg/mL]	IC (MIC80 of serotype panel) [1] [µg/mL]	MIC (Polio 2) [µg/mL]
Cc1cc(CCCCCCCOc2ccc(C3=NCCCO3)cc2)on1 [94(c), 5,6-Dihydro-2-{4-[7-(3-methyl-5-isoxazolyl)heptyloxy]phenyl}-4H-1,3-oxazine]	1.06 (≈ 2.97 µM)	99	0.8 (≈ 2.24 µM)
Cc1cc(CCCCCOc2c(C)cc(-c3cnco3)cc2C)on1 [97(b), 5-{5-[2,6-Dimethyl-4-(5-oxazolyl)phenoxy]pentyl}-3-methylisoxazole]	0.135 (≈ 0.397 µM)	0.76	5.4 (≈ 15.9 µM)
Cc1cc(CCCCCSc2ccc(C3=NCCO3)cc2)on1 [103(c), 5-{5-[[4-(4,5-Dihydro-2-oxazolyl)phenyl]thio]pentyl}-3-methylisoxazole]	0.57 (≈ 1.72 µM)	27.1	0.37 (≈ 1.12 µM)
Cc1cc(CCCCCOc2c(Cl)cc(C(=O)NCCCl)cc2Br)on1 [152(c), 3-Bromo-5-chloro-N-(2-chloroethyl)-4-{[5-(3-methyl-5-isoxazolyl)pentyl]oxy}benzamide]	0.14 (≈ 0.302 µM)	0.6	2.1 (≈ 4.52 µM)
Cc1cc(CCCCCOc2c(Cl)cc(C3=NCCO3)cc2Br)on1 [152(d), 5-{5-[2-Bromo-6-chloro-4-(4,5-dihydro-2-oxazolyl)phenoxy]pentyl}-3-methylisoxazole]	0.095 (≈ 0.222 µM)	0.23	0.97 (≈ 2.27 µM)
Cc1cc(CCCCCOc2c(Cl)cc(C(=O)NCCCl)cc2[N+](=O)[O-])on1 [153(c), 3-Chloro-N-(2-chloroethyl)-4-{[5-(3-methyl-5-isoxazolyl)pentyl]oxy}-5-nitrobenzamide]	0.08 (≈ 0.186 µM)	0.23	0.86 (≈ 2 µM)
Cc1cc(CCCCCOc2c(Cl)cc(C3=NCCO3)cc2[N+](=O)[O-])on1 [153(d), 5-{5-[2-Chloro-4-(4,5-dihydro-2-oxazolyl)-6-nitrophenoxy]pentyl}-3-methylisoxazole]	0.09 (≈ 0.229 µM)	0.18	0.4 (≈ 1.02 µM)
Cc1cc(CCCCCOc2c(C)cc(C(=O)NCCCl)cc2Cl)on1 [154(b), 3-Chloro-N-(2-chloroethyl)-5-methyl-4 -{[5-(3-methyl-5-isoxazolyl)pentyl]oxy}benzamide]	0.17 (≈ 0.426 µM)	0.63	1.13 (≈ 2.83 µM)
Cc1cc(CCCCCOc2c(C)cc(C3=NCCO3)cc2Cl)on1 [154(c), 5-{5-[2-Chloro-4-(4,5-dihydro-2-oxazolyl)-6-methylphenoxy]pentyl}-3-methylisoxazole]	0.22 (≈ 0.606 µM)	0.33	0.8 (≈ 2.2 µM)
CCc1cc(C(=O)NCCCl)cc(C)c1OCCCCCc1cc(C)no1 [157(c), N-(2-Chloroethyl)-3-ethyl-5-methyl-4-{[5-(3-methyl-5-isoxazolyl)pentyl]oxy}benzamide]	0.49 (≈ 1.25 µM)	1.2	2.1 (≈ 5.34 µM)
CCc1cc(C2=NCCO2)cc(C)c1OCCCCCc1cc(C)no1 [157(d), 5-{5-[4-(4,5-Dihydro-2-oxazolyl)-2-ethyl-6-methylphenoxy]pentyl}-3-methylisoxazole]	1.25 (≈ 3.51 µM)	2.5	3.3 (≈ 9.26 µM)
COc1cc(C(=O)NCCCl)cc(OC)c1OCCCCCc1cc(C)no1 [158(b), N-(2-Chloroethyl)-3,5-dimethoxy-4-{[5-(3-methyl-5-isoxazolyl)pentyl]oxy}benzamide]	1.73 (≈ 4.21 µM)	4.7	2 (≈ 4.87 µM)
COc1cc(C2=NCCO2)cc(OC)c1OCCCCCc1cc(C)no1 [158(d), 5-{5-[4-(4,5-Dihydro-2-oxazolyl)-2,6-dimethoxyphenoxy]pentyl}-3-methylisoxazole]	2.1 (≈ 5.61 µM)	5	1 (≈ 2.67 µM)
Cc1cc(CCCCCOc2c(F)cc(C3=NCCO3)cc2F)on1 [159(c), 5-{5-[4-(4,5-Dihydro-2-oxazolyl)-2,6-difluorophenoxy]-pentyl}-3-methylisoxazole]	0.15 (≈ 0.428 µM)	0.66	0.12 (≈ 0.342 µM)
Cc1cc(CCCCCOc2c(F)c(F)c(C3=NCCO3)c(F)c2F)on1 [161(c), 5-{5-[4-(4,5-Dihydro-2-oxazolyl)-2,3,5,6-tetrafluorophenoxy]pentyl}-3-methylisoxazole]	0.25 (≈ 0.647 µM)	3.5	0.05 (≈ 0.129 µM)
Cc1cc(CCCCCOc2c(Cl)cc(C(=O)NCCCl)cc2Cl)on1 [162(c), 3,5-Dichloro-N-(2-chloroethyl)-4-{[5-(3-methyl-5-isoxazolyl)pentyl]oxy}benzamide]	0.16 (≈ 0.381 µM)	0.28	0.48 (≈ 1.14 µM)
Cc1cc(CCCCCCc2c(Cl)cc(C3=NCCO3)cc2Cl)on1 [163(b), 5-{6-[2,6-Dichloro-4-(4,5-dihydro-2-oxazolyl)phenyl]hexyl}-3-methylisoxazole]	0.49 (≈ 1.29 µM)	0.73	1.4 (≈ 3.67 µM)
Cc1cc(CCCCCCOc2ccc(C3=NCCO3)cc2Cl)on1 [Example 16, 5-{-[26-Chloro-4-(4,5-dihydro-2-oxazolyl)phenoxy]hexyl}-3-methylisoxazole]	0.08 (≈ 0.22 µM)	0.43	0.13 (≈ 0.358 µM)

Structure (SMILES)	MIC50 [1] [µg/mL]	IC (MIC80 of serotype panel) [1] [µg/mL]	MIC (Polio 2) [µg/mL]
Cc1cc(CCCCCOc2ccc(C3=NCCO3)cc2F)on1 [Example 20, 5-{5-[4-(4,5-Dihydro-2-oxazolyl)-2-fluorophenoxy]pentyl}-3-methylisoxazole]	0.38 (≈ 1.14 µM)	26.9	0.1 (≈ 0.301 µM)
Cc1cc(CCCCOc2ccc(C3=NCCO3)cc2Cl)on1 [Example 24, 5-{4-[2-Chloro-4-(4,5-dihydro-2-oxazolyl)phenoxy]butyl}-3-methylisoxazole]	0.087 (≈ 0.26 µM)	1.2	1.7 (≈ 5.08 µM)
Cc1cc(CCCCCOc2ccc(C3=NC(C)CO3)cc2Cl)on1 (stereo not drawn) [Example 32, 5-{5-[2-Chloro-4-(4,5-dihydro-4-methyl-2-oxazolyl)phenoxy]pentyl}-3-methylisoxazole]	0.09 (≈ 0.248 µM)	0.27	1.3 (≈ 3.58 µM)
Cc1cc(CCCCCCCOc2ccc(C3=NC(CO)CO3)cc2)on1 (stereo not drawn) [Example 33, 5-{7-[4-(4,5-Dihydro-4-hydroxymethyl-2-oxazolyl)phenoxy]heptyl}-3-methylisoxazole]	51 (≈ 137 µM)	99	3 (≈ 8.05 µM)
Cc1noc(CCCCCCCOc2ccc(C3=NCCO3)cc2)c1CCl [Example 35, 4-Chloromethyl-5-{7-[4-(4,5-dihydro-2-oxazolyl)phenoxy]heptyl}-3-methylisoxazole]	1.39 (≈ 3.54 µM)	1.8	0.05 (≈ 0.128 µM)
COc1cc(C2=NCCO2)ccc1OCCCCCc1cc(C)no1 [Example 42, 5-{5-[4-(4,5-Dihydro-2oxazolyl)-2-methoxyphenoxy]pentyl}-3-methylisoxazole]	0.35 (≈ 1.02 µM)	0.64	0.12 (≈ 0.348 µM)
Cc1noc(CCCCCCCOc2ccc(C3=NCCO3)cc2Cl)c1CO [Example 43]	0.31 (≈ 0.762 µM)	1	0.3 (≈ 0.737 µM)
Cc1cc(CCCCCOc2ccc(C3=NCCO3)cc2Br)on1 [Example 44, 5-{5-[2-Bromo-4-(4,5-dihydro-2-oxazolyl)phenoxy]pentyl}-3-methylisoxazole]	0.08 (≈ 0.203 µM)	0.54	0.3 (≈ 0.763 µM)
Cc1cc(CCCCCCCOc2ccc(C3=NCCO3)cc2Br)on1 [Example 45, 5-{7-[2-Bromo-4(4,5-dihydro-2-oxazolyl)phenoxy]heptyl}-3-methylisoxazole]	0.16 (≈ 0.38 µM)	0.7	0.5 (≈ 1.19 µM)
Cc1cc(CCCCCOc2ccc(C3=NCCO3)cc2C)on1 [Example 46, 5-{5-[4-(4,5-Dihydro-2-oxazolyl)-2-methylphenoxy]pentyl}-3-methylisoxazole]	0.09 (≈ 0.274 µM)	0.2	0.1 (≈ 0.304 µM)
Cc1cc(CCCCCOc2ccc(C3=NCCO3)c(Cl)c2)on1 [Example 47, 5-{5-[3-Chloro-4-(4,5-dihydro-2-oxazolyl)phenoxy]pentyl}-3-methylisoxazole]	0.36 (≈ 1.03 µM)	2.4	0.02 (≈ 0.0573 µM)
Cc1cc(CCCCCCOc2ccc(C3=NC(C)CO3)cc2Cl)on1 (stereo not drawn) [Example 48, 5-{6-[2-Chloro-(4,5-dihydro-4-methyl-2-oxazolyl)phenoxy]hexyl}-3-methylisoxazole]	0.13 (≈ 0.345 µM)	0.37	2.3 (≈ 6.1 µM)
Cc1cc(CCCCCOc2ccc(C3=NCCO3)cc2N)on1 [Example 49, 5-{5-[2-Amino-4-(4,5-dihydro-2-oxazoyl)phenoxy]pentyl}-3-methylisoxazole]	1.1 (≈ 3.34 µM)	4.6	2 (≈ 6.07 µM)
Cc1cc(CCCCCCCOc2ccc(C3=NCCO3)c(Cl)c2)on1 [Example 50, 5-{7-[3-Chloro-4(4,5-dihydro-2-oxazolyl)phenoxy]heptyl}-3-methylisoxazole]	5.05 (≈ 13.4 µM)	99	0.7 (≈ 1.86 µM)
Cc1cc(CCCCCOc2ccc(C3=NCCO3)c(C)c2)on1 [Example 51, 5-{5-[4-(4,5-Dihydro-2oxazolyl)-3-methylphenoxy]pentyl}-3-methylisoxazole]	0.56 (≈ 1.71 µM)	1.6	0.045 (≈ 0.137 µM)
Cc1cc(CCCCCOc2ccc(C3=NCCO3)c(O)c2)on1 [Example 52, 5-{5-[4-(4,5-Dihydro-2-oxazolyl)-3-hydroxyphenoxy]pentyl}-3-methylisoxazole]	0.084 (≈ 0.254 µM)	1.9	0.003 (≈ 0.00908 µM)
Cc1cc(CCCCCOc2ccc(C3=NCCO3)cc2[N+](=O)[O-])on1 [Example 53, 5-{5-[4-(4,5-Dihydro-2-oxazolyl)-2-nitrophenoxy]pentyl}-3-methylisoxazole]	0.087 (≈ 0.242 µM)	0.64	0.08 (≈ 0.223 µM)
Cc1cc(CCCCCOc2ccc(C3=NCCO3)cc2C(F)(F)F)on1 [Example 54, 5-{5-[4-(4,5-Dihydro-2-oxazolyl)-2-trifluoromethylphenoxy]pentyl}-3-methylisoxazole]	0.08 (≈ 0.209 µM)	0.42	1.3 (≈ 3.4 µM)

— patent publication US4843087A (priority 1986, dated 1989)
